# Reference: patent US12533353B2, “Methods of treatment of cancer comprising CDC7 inhibitors” (CARNA BIOSCIENCES, INC., priority 2018, dated 2026)
# Read-outs that look alike come from different tables or passages of the source.
# Key:
# AML-blast progenitors = test: 3D growth in methylcellulose matrix, 14 days; assay type: cell-based
# Procedure: (§1) The anti-proliferative activity of SRA141 (0.3-5 μM) was also evaluated in additional 3D growth studies conducted in a methylcellulose growth matrix using normal human myeloid (n=3) and AML-blast progenitors incubated for 14 days.
# [1] = test system: normal human myeloid progenitors (normal bone marrow); test: 3D growth in methylcellulose matrix, 14 days; assay type: cell-based
# Procedure: as §1
# Molm-16 = test: AML 3D culture, 5 days; assay type: cell-based; conditions: Molm-16 cell line
# Procedure: (§2) The activity of SRA141 was investigated in in vitro and ex vivo three-dimensional (3D) cultures prepared from three AML cell lines (EOL-1, Molm-16 and MV-4-11) and three AML PDX models (AM5512, AM7440 and AM7577), respectively. Tumor cultures were treated with SRA141 (0.08 to 33 μM) for 5 days.
# EOL-1 = test: AML 3D culture, 5 days; assay type: cell-based; conditions: EOL-1 cell line
# Procedure: as §2
# MV-4-11 = test: AML 3D culture, 5 days; assay type: cell-based; conditions: MV-4-11 cell line
# Procedure: as §2
# AM7440 = test: AML PDX ex vivo 3D culture, 5 days; assay type: cell-based
# Procedure: as §2
# AM5512 = test: AML PDX ex vivo 3D culture, 5 days; assay type: cell-based
# Procedure: as §2
# MOLM-13 cells [2] = test: Sequential treatment: SRA141 pre-treatment then partner agent, ATPlite; assay type: cell-based, human; conditions: 200 nM SRA141 pre-treatment 48 hrs compared to DMSO pre-treatment
# Procedure: Flasks of MOLM-13 cells were pre-treated with SRA141 (1 μM and 200 nM) and DMSO control for 48 hrs; cells were washed and seeded into 384-well plates; plates left to incubate for 6 hrs, followed by treatment with trametinib or bexarotene six hours after plating as single agents. After 72 hrs, ATP levels were measured using ATPlite.
# MOLM-13 cells [3] = test: Co-treatment combination screen, synergy score, ATPlite; assay type: cell-based, human; conditions: simultaneous combination treatment, 72 hours
# Procedure: (§3) The combination screen was performed using the co-treatment dosing schedule for SRA141 and the partner compound. Both enhancee (SRA141) and enhancer (partner compound) were added at time zero (0 h). Cells were exposed to SRA141 and the enhancer for the entire 72-hour treatment time. All data points were collected via automated processes and were subject to quality control and analyzed using proprietary software.
# (§4) The Growth Inhibition (GI) was utilized as a measure of cell growth. GI percentages are calculated by applying the following test and equation: […]
# (§5) This formula is derived from the Growth Inhibition calculation used in the National Cancer Institute's NCI-60 high throughput screen. […] These GI calculations were used in all single agent and combination data analysis for the combination screen.
# (§6) To measure combination effects in excess of Loewe additivity, a scalar measure was used to characterize the strength of synergistic interaction termed the Synergy Score. The Synergy Score is calculated as: Synergy Score=log fX log fYΣ max(0,Idata)(Idata−ILoewe)
# (§7) The fractional inhibition for each component agent and combination point in the matrix is calculated relative to the median of all vehicle-treated control wells. The Synergy Score equation integrates the experimentally-observed activity volume at each point in the matrix in excess of a model surface numerically derived from the activity of the component agents using the Loewe model for additivity. Additional terms in the Synergy Score equation (above) are used to normalize for various dilution factors used for individual agents and to allow for comparison of synergy scores across an entire experiment. The inclusion of positive inhibition gating or an Idata multiplier removes noise near the zero effect level, and biases results for synergistic interactions at that occur at high activity levels. Combinations with higher maximum Growth Inhibition (GI) effects or those which are synergistic at low concentrations will have higher Synergy Scores. Those combinations with Synergy Scores that statistically supersede baseline self-cross values can be considered synergistic. The magnitude of GI effects may be linked to the growth rate of cells which varies for each cell line examined.
# (§8) Loewe Volume Score is used to assess the overall magnitude of the combination interaction in excess of the Loewe additivity model. Loewe Volume is particularly useful when distinguishing synergistic increases in a phenotypic activity (positive Loewe Volume) versus synergistic antagonisms (negative Loewe Volume).
# AM7577 = test: AML PDX ex vivo 3D culture, 5 days; assay type: cell-based
# Procedure: as §2
# [4] = test system: Colo-205 colorectal adenocarcinoma cells; test: Sequential treatment: SRA141 pre-treatment then partner agent, ATPlite; assay type: cell-based, human
# MV411 = test: Combination of SRA141 with targeted agents, CTG and CTBlue, 72 hours, Bliss CI; conditions: MV411, 72 hours
# SW620 = test: as above; conditions: SW620, 72 hours
# Colo-205 = test: as above; conditions: Colo-205, 72 hours
# COLO-205 cells = test: Co-treatment combination screen, synergy score, ATPlite; assay type: cell-based, human; conditions: simultaneous combination treatment, 72 hours
# Procedure: as §3, §4, §5, §6, §7, §8
# MOLM-13 = test: Combination of SRA141 with targeted agents, CTG and CTBlue, 72 hours, Bliss CI; assay type: cell-based; conditions: for combination effect with SRA141: MOLM-13, 72 hours
# Procedure: The anti-apoptotic gene BCL-2 was inhibited in Molm-13 cells by treatment with 0.1 μM ABT-199 as previously described (see Examples 6 and 24). Cells were treated with 0.1 μM ABT-199 and SRA141 for 72 hours at SRA141 concentrations of 0.04 μM to 3.30 μM.
smiles,measurement,setting,value
"Nc1ccn([C@@H]2O[C@H](CO)[C@@H](O)[C@@H]2O)c(=O)n1 [Cytarabine, cytosine arabinoside, reference compound]",primary AML samples responding with a Therapeutic Index [(Primary AML IC50)÷(BMNC control IC50)],AML-blast progenitors; 9 primary AML samples,2 out of 9
same,IC50,"AML-blast progenitors; AML810 censored, read-out: mean IC50, AML samples",~4 nM
same,IC50,"AML-blast progenitors; AML-blast progenitor 180, read-out: IC50",3.6 nM
same,IC50,"AML-blast progenitors; AML-blast progenitor 190, read-out: IC50",6.1 nM
same,IC50,"AML-blast progenitors; AML-blast progenitor 200, read-out: IC50",2.8 nM
same,IC50,"AML-blast progenitors; AML-blast progenitor 250, read-out: IC50",2.2 nM
same,IC50,"AML-blast progenitors; AML-blast progenitor 260, read-out: IC50",3 nM
same,IC50,"AML-blast progenitors; AML-blast progenitor 717, read-out: IC50",3.8 nM
same,IC50,"AML-blast progenitors; AML-blast progenitor 810 (sample censored), read-out: IC50",9.6 nM
same,IC50,"AML-blast progenitors; AML-blast progenitor 915, read-out: IC50",8.1 nM
same,IC50,"AML-blast progenitors; AML-blast progenitor 917, read-out: IC50",5.7 nM
same,IC50,"AML-blast progenitors; with AML 810, read-out: Mean AML-blast progenitor IC50 (with AML 810)",5 ± 2.6 nM
same,IC50,"AML-blast progenitors; without AML 810, read-out: Mean AML-blast progenitor IC50 (without AML 810)",4.4 ± 2 nM
same,IC50,"[1]; Normal bone marrow 111, read-out: IC50",4.8 nM
same,IC50,"[1]; Normal bone marrow 525 (first line), read-out: IC50",3.7 nM
same,IC50,"[1]; Normal bone marrow 525 (second line), read-out: IC50",3.8 nM
same,IC50,"[1]; mean of 3 samples, read-out: Mean normal bone marrow IC50",4.1 ± 0.6 nM
same,IC50,"[1]; read-out: mean IC50, normal bone marrow preparations",~4 nM
same,IC50,Molm-16; MOLM16,70 nM
same,IC50,"EOL-1; Homo sapiens, EOL1",2 nM
same,IC50,"MV-4-11; Homo sapiens, MV4-11",50 nM
same,IC50,AM7440,270 nM
same,IC50,AM5512,8890 nM
CC(=O)Nc1cccc(-n2c(=O)n(C3CC3)c(=O)c3c(Nc4ccc(I)cc4F)n(C)c(=O)c(C)c32)c1 [Trametinib],EC50 fold change of partner agent,MOLM-13 cells [2],2.63
Cn1ncnc1[C@H]1c2n[nH]c(=O)c3cc(F)cc(c23)N[C@@H]1c1ccc(F)cc1 [BMN673],synergy with SRA141,MOLM-13 cells [3],strong synergies
N.N.[Cl][Pt][Cl] [Cisplatin],IC50,Molm-16,380 nM
same,IC50,EOL-1,640 nM
same,IC50,MV-4-11,620 nM
same,IC50,AM7577,4180 nM
same,IC50,AM7440,1340 nM
same,IC50,AM5512,11900 nM
CO[C@H]1C[C@@H]2CC[C@@H](C)[C@@](O)(O2)C(=O)C(=O)N2CCCC[C@H]2C(=O)O[C@H]([C@H](C)C[C@@H]2CC[C@@H](OCCO)[C@H](OC)C2)CC(=O)[C@H](C)/C=C(\C)[C@@H](O)[C@@H](OC)C(=O)[C@H](C)C[C@H](C)/C=C/C=C/C=C/1C [everolimus],EC50 fold change of partner agent,MOLM-13 cells [2],3.25
same,EC50 fold change of partner agent,[4]; 200 nM SRA141 pre-treatment 48 hrs compared to DMSO pre-treatment,3.3
COc1c(OCCCN2CCOCC2)ccc2c1N=C(NC(=O)c1cnc(N)nc1)N1CCN=C21 [Copanlisib],combination effect with SRA141,MV411,slight additive effects
same,combination effect with SRA141,SW620,slight additive effects
same,combination effect with SRA141,Colo-205,slight additive effect
same,synergy with SRA141,COLO-205 cells,Strong synergies
same,combination effect with SRA141,MOLM-13,slight additive effects
C=C(c1ccc(C(=O)O)cc1)c1cc2c(cc1C)C(C)(C)CCC2(C)C [Bexarotene],EC50 fold change of partner agent,MOLM-13 cells [2],2.63
same,combination effect with SRA141,Colo-205,antagonistic effect
same,synergy with SRA141,MOLM-13 cells [3],strong synergies
same,combination effect with SRA141,MOLM-13,slight additive effects
CC1(C)CCC(CN2CCN(c3ccc(C(=O)NS(=O)(=O)c4ccc(NCC5CCOCC5)c([N+](=O)[O-])c4)c(Oc4cnc5[nH]ccc5c4)c3)CC2)=C(c2ccc(Cl)cc2)C1 [ABT-199],synergy with SRA141,MOLM-13 cells [3],strong synergies
same,Combination Index,"MOLM-13; 0.1 μM ABT-199 with SRA141 at 0.12, 0.37, 1.10 and 3.30 μM, 72 hours",less than 1
same,combination effect with SRA141,MOLM-13,act synergistically
C[C@@]1(CO)[C@H](O)CC[C@@]2(C)[C@H]1CC[C@H]1C[C@@H]3C[C@@]12CC[C@]3(O)CO [aphidicolin],EC50 fold change of partner agent,[4]; 1 μM SRA141 pre-treatment 48 hrs compared to DMSO pre-treatment,4.60
CC1=C(/C=C/C(C)=C/C=C/C(C)=C/C(=O)O)C(C)(C)CCC1 [Tretinoin],combination effect with SRA141,MV411,slight additive effects
same,combination effect with SRA141,MOLM-13,slight additive effects
